Substitutions are numbered along the chain they refer to.
Experiments:
[1] = test system: human airway epithelial cultures; details: background description; cited from earlier work
GFP-hHv1 G199C mutant = biological target: T1, GFP-hHv1 G199C mutant (Homo sapiens, UniProt Q96D96, G199C); assay: Patch-clamp currents of GFP-hHv1 G199C mutant in transfected HEK cells; type: cell-based; details: G199C mutant (engineered Cys at residue 199); FIG. 3
T1 construct: expressed in transfected cells; host or cells: HEK-293 cell clone HM1 (stably expresses the human muscarinic M1 receptor)
T1 sequence (Q96D96 1-273 G199C): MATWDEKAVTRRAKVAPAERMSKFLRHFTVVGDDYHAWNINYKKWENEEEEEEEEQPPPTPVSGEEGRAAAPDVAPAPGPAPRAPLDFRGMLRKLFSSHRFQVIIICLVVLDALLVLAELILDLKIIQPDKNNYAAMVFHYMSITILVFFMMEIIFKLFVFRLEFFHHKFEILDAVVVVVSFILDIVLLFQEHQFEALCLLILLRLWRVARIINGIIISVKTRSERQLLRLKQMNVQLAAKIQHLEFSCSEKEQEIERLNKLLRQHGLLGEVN

wt GFP-hHv1 = biological target: T2, wt GFP-hHv1 (Homo sapiens, UniProt Q96D96); assay: Patch-clamp currents of wt GFP-hHv1 in transfected HEK cells; type: cell-based; details: wild-type channel
T2 construct: expressed in transfected cells; host or cells: HEK-293 cell clone HM1 (stably expresses the human muscarinic M1 receptor)
T2 sequence (Q96D96 1-273): T1 sequence (Q96D96 1-273 G199C) with C199G

T lymphocytes = details: one day after stimulation; cited from earlier work

SMILES	effect on acid secretion across the epithelium [1]	further results
Nc1ncnc2c1ncn2[C@@H]1O[C@H](COP(=O)(O)OP(=O)(O)OP(=O)(O)O)[C@@H](O)[C@H]1O [ATP]	stimulated	
C[N+](C)(C)CCSS(C)(=O)=O [MTSET, 2-(trimethylammonium)methanethiosulfonate]		effect on hHv1 currents (GFP-hHv1 G199C mutant): modulate hHv1 currents; effect on wt GFP-hHv1 currents (wt GFP-hHv1): little effect
CCCCCCCCCCCCCC(=O)O[C@@H]1[C@@H](C)[C@@]2(O)[C@@H](C=C(CO)C[C@]3(O)C(=O)C(C)=C[C@@H]23)[C@@H]2C(C)(C)[C@]12OC(C)=O [PMA, phorbol 12-myristate 13-acetate]		increase of H+ currents in T lymphocytes (T lymphocytes): 13 fold
Cc1nc2c(OCc3ccccc3)cccn2c1CC#N [Sch-28080]	not	
[Cl-].[Cl-].[Zn+2] [ZnCl2]	inhibited	
N=C(N)NC(=O)c1nc(Cl)c(N)nc1N [amiloride]	not	
CO/C1=C\C(C)=C\[C@@H](C)[C@@H](O)[C@@H](C)C/C(C)=C/C=C/[C@H](OC)[C@@H]([C@@H](C)[C@@H](O)[C@H](C)[C@@]2(O)C[C@@H](O)[C@H](C)[C@@H](C(C)C)O2)OC1=O [bafilomycin A1]	not	
NCCc1c[nH]cn1 [histamine]	stimulated	
C[C@@H]1O[C@@H](O[C@H]2C[C@@H](O)[C@]3(CO)[C@H]4[C@H](O)C[C@]5(C)[C@@H](C6=CC(=O)OC6)CC[C@]5(O)[C@@H]4CC[C@]3(O)C2)[C@H](O)[C@H](O)[C@H]1O [ouabain]	not	

— patent US9068018B2, “Methods of using voltage-gated Hv1 proton channels to detect changes in intracellular pH” (Children's Medical Center Corporation, priority 2006, dated 2015)
